# Laboratory results reported in patent EP0958817A1, “COMPOSITION CONTAINING DIARYLALKANE DERIVATIVE AS THE ACTIVE INGREDIENT FOR TREATING OR PREVENTING PANCREATITIS” (SANKYO COMPANY LIMITED, priority 1996, dated 1998).
# Structures can show the parent of a compound that is named as a salt.
# How the values were obtained:
# [1] = tested on: pancreatitis induced by choline-deficient ethionine supplemented diet; assay: Inhibitory activity against pancreatitis induced by choline-deficient ethionine supplemented diet (CDE diet); serum amylase activity as index of pancreatitis; format: in vivo, ICR female mouse; conditions: serum 64 h after start of CDE diet, twice a day, 6 times in total
# Description: Pancreatitis of a mouse was induced by choline-deficient ethionine supplemented diet (CDE diet). A modified method of Lombardi et al [Lombardi et al, Am. J. Pathol., 79, 465-480 (1975)] was carried out. Briefly, the pancreatitis was induced by feeding an ICR female mouse (Charles River Japan, Inc. three-weeks old) choline deficient diet to which 0.5% (w/w) DL-ethionine was added (CDE diet). Sixty four hours after the feeding with the CDE diet, approximately 0.3 ml of the blood was collected from the heart of the mouse under anesthesia with ether. The collected blood was allowed to stand at room temperature for 2 hours to coagulate, followed by centrifugation (at 12,000 rpm for 10 minutes), to obtain serum. The amylase activity in the serum was measured by an amylase activity assay kit (Amylase B-Test Wako, product of Wako Pure Chemical Industries, Ltd.) and was designated as an index of pancreatitis. The test compound suspended in a 0.5% (w/v) tragacanth solution was administered to mice one hour before the feeding of the CDE diet and was administered twice a day, 6 times in total. The control group was fed with the CDE diet to induce pancreatitis but the test compounds were not administered to the control group. The normal group was not fed with the CDE diet but was fed with ordinary food.
# [2] = tested on: cerulein-induced pancreatitis; assay: Inhibitory activity against cerulein-induced pancreatitis; serum amylase activity as index of pancreatitis; format: in vivo, Wistar rats; conditions: Table 6, serum 3 h after final cerulein (20 µg/kg i.p., four times), control group 48.7
# Description: Induction of experimental acute pancreatitis in rats was carried out by a modified method of Otsuki et al [Otsuki et al, Dig. Dis. Sci., 35, 242-250 (1990)]. Briefly, cerulein (20 µg/kg) was intraperitoneally administered to Wistar rats (Japan SLC, weight: about 200 g) every one hour, four times in total. Three hours after the final administration, the blood was collected from the jugular vein of the rat under anesthesia with ether. The collected blood was allowed to stand at room temperature for 2 hours to coagulate, followed by centrifugation (at 12,000 rpm for 10 minutes), to obtain serum. The amylase activity of the serum was measured using an amylase activity assay kit (Amylase B-Test Wako, product of Wako Pure Chemical Industries, Ltd.) and was designated as an index of pancreatitis. The test compound suspended in a 0.5% (w/v) tragacanth solution was orally administered 30 minutes before the first injection of the cerulein. The control group is defined as a group in which pancreatitis was induced, but to which the test compounds were not administered.
# [3] = Table 4, dose 10 mg/kg, control group 64.7, normal group 6.6
# [4] = Table 4, dose 30 mg/kg, control group 64.7, normal group 6.6
compound,measurement,setting,value
"COc1cccc(CCc2ccccc2OCC[C@@H]2C[C@@H](O)CN2C)c1.Cl [Preparation Example 18, (2R,4R)-4-Hydroxy-2-[2-[2-[2-(3-methoxyphenyl)ethyl]phenoxy]ethyl]-1-methylpyrrolidine hydrochloride]",Amylase activity,"[1]; Table 5, dose 10 mg/kg, control group 48.0, normal group 8.7",25.7 IU/ml
same,Amylase activity,"[1]; Table 5, dose 30 mg/kg, control group 48.0, normal group 8.7",21.8 IU/ml
"CCCCCCCCCCCC(=O)O[C@@H]1C[C@@H](CCOc2ccccc2CCc2cccc(OC)c2)N(C)C1.Cl [Preparation Example 3, (2R,4R)-4-Lauroyloxy-2-[2-[2-[2-(3-methoxyphenyl)ethyl]phenoxy]ethyl]-1-methylpyrrolidine hydrochloride]",Amylase activity,"[1]; Table 3, dose 10 mg/kg, control group 71.7, normal group 7.4",35.0 IU/ml
same,Amylase activity,"[1]; Table 3, dose 30 mg/kg, control group 71.7, normal group 7.4",32.1 IU/ml
same,Amylase activity,[2]; dose 10 mg/kg orally 30 minutes before first cerulein,43.6 IU/ml
same,Amylase activity,[2]; dose 30 mg/kg orally 30 minutes before first cerulein,34.9 IU/ml
same,Amylase activity,[2]; dose 100 mg/kg orally 30 minutes before first cerulein,31.7 IU/ml
"COc1cc(CCc2cc(F)ccc2OCC[C@@H]2C[C@@H](O)CN2C)ccc1F [Preparation Example 2, (2R,4R)-2-[2-[4-Fluoro-2-[2-(4-fluoro-3-methoxypheny)ethyl]phenoxy]ethyl]-4-hydroxy-1-methylpyrrolidine hydrochloride]",Amylase activity,[1]; [3],53.7 IU/ml
same,Amylase activity,[1]; [4],31.2 IU/ml
"COc1cc(CCc2ccccc2OCC[C@@H]2C[C@@H](O)CN2C)ccc1F.Cl [Preparation Example 4, (2R,4R)-2-[2-[2-[2-(4-Fluoro-3-methoxyphenyl)ethyl]phenoxy]ethyl]-4-hydroxy-1-methylpyrrolidine hydrochloride]",Amylase activity,[1]; [3],48.4 IU/ml
same,Amylase activity,[1]; [4],30.5 IU/ml
